# Measured values as given in patent US20210246122A1, “Triazine Compounds and Uses Thereof” (Aduro Biotech, Inc., priority 2018, published 2021).
# pIC50: −log10 of the molar value.
# Target: T1, Human cGAS amino acids 155-522 (Homo sapiens, UniProt Q8N884)
# T1 construct: hexahistidine tag (N, cleaved yes); made in house; host or cells: E. coli BL21 DE3 Rosetta 2
# Assay: cGAS activity assay (DNA-activated cGAS, remaining ATP measured by Kinase-Glo Max luciferase assay)
# Assay type: biochemical
# Conditions: 300 nM purified cGAS, 1 μM dsDNA, 250 μM ATP, 100 μM GTP, 37° C. for 1.25 hours
# Method: IC50 values were determined as follows:
# Human cGAS sequence encoding amino acids 155-522 was cloned into a pET (EMD Millipore) based expression plasmid. The resulting construct contained a tandem N-terminal hexahistidine tag, maltose binding protein fusion followed by a tobacco etch virus protease cleavable linker preceding cGAS amino acids 155-522.
# Construct sequence: Amino acids 155-522, Human cGAS
# Protein was expressed and purified from E. coli BL21 DE3 Rosetta 2 (EMD Millipore) cells using standard techniques. Cells were grown in 2× yeast extract tryptone medium and expression was initiated via the addition of isopropyl β-D-1-thiogalactopyranoside. Expression proceeded overnight at 18° C. Cells were harvested by centrifugation and subsequently lysed via sonication. Insoluble fraction was removed by centrifugation. Maltose binding protein (MBP) fusion proteins were purified on a dextrin sepharose column (GE Healthcare) and the MBP tag was removed using tobacco etch virus protease overnight during dialysis. Protein was further purified on a heparin column (GE Healthcare) and eluted using a NaCl gradient. Column fraction were pooled and further purified on a Superdex 75 gel filtration column (GE Healthcare). Protein was quantified using 280 nm absorbance. Protein was then flash frozen in liquid nitrogen and stored at −80° C. until use.
# Potential antagonists were diluted in 100% dimethyl sulfoxide and added to the reaction. Final dimethyl sulfoxide concentration was 5%. The compounds were tested from 1 μM with either 3- or 4-fold serial dilutions down to 0.000051 or 0.000004 μM respectively.
# Two complementary DNA oligos (IDT DNA) were annealed by slow cooling from 95° C. The resulting double stranded DNA was used to activate cGAS.
# Reactions were performed at 37° C. for 1.25 hours. Reaction buffer: 20 mM Tris HCl pH 9, 100 mM NaCl, 5 mM MgCl2, 0.1 mg/ml bovine gamma globulin, 250 μM adenosine triphosphate, 100 μM guanosine triphosphate, 0.5 mM Tris(2-carboxyethyl)phosphine hydrochloride, 1 μM double stranded DNA and 300 nM purified cGAS protein.
# Reactions were stopped and ATP levels in the reaction were measured using a luciferase based assay. Promega Kinase-Glo Max Assay. Luminescence was measured on a plate reader (Molecular Devices). Values were normalized to control wells lacking compound.
# T1 sequence (Q8N884 157-522): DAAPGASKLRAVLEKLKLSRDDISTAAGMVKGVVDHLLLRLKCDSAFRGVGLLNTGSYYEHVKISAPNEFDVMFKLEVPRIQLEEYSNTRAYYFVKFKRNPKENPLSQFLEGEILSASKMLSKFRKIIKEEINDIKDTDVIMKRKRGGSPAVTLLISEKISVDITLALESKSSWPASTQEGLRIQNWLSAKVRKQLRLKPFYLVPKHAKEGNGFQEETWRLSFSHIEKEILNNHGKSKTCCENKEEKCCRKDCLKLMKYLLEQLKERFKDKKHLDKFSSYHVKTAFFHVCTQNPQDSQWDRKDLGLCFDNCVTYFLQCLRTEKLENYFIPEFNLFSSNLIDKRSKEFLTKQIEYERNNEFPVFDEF
row,pIC50,Compound
1,< 3.60,"COC(=O)[C@H](Cc1ccc(C#N)cc1)Nc1nc(NCc2nc3cc(F)ccc3[nH]2)nc(Nc2cccc(CN3CCN(C(=O)OC(C)(C)C)CC3)c2)n1 [TA1003, tert-butyl (S)-4-(3-((4-((3-(4-cyanophenyl)-1-methoxy-1-oxopropan-2-yl)amino)-6-(((5-fluoro-1H-benzo[d]imidazol-2-yl)methyl)amino)-1,3,5-triazin-2-yl)amino)benzyl)piperazine-1-carboxylate]"
2,< 3.60,"CNC(=O)[C@H](Cc1ccc(C#N)cc1)Nc1nc(NCc2nc3cc(F)ccc3[nH]2)nc(Nc2cccc(CN3CCN(C=O)CC3)c2)n1 [TA1030, (S)-3-(4-cyanophenyl)-2-((4-(((5-fluoro-1H-benzo[d]imidazol-2-yl)methyl)amino)-6-((3-((4-formylpiperazin-1-yl)methyl)phenyl)amino)-1,3,5-triazin-2-yl)amino)-N-methylpropanamide]"
3,< 3.60,"COC(=O)[C@H](Cc1ccc(C#N)cc1)Nc1nc(NCc2nc3cc(F)ccc3[nH]2)nc(Nc2cccc(CN3CCN(C(C)=O)CC3)c2)n1 [TA1075, methyl (S)-2-((4-((3-((4-acetylpiperazin-1-yl)methyl)phenyl)amino)-6-(((5-fluoro-1H-benzo[d]imidazol-2-yl)methyl)amino)-1,3,5-triazin-2-yl)amino)-3-(4-cyanophenyl)propanoate]"
4,< 3.60,"COC(=O)[C@H](Cc1ccc(C#N)cc1)Nc1nc(NCc2nc3cc(F)ccc3[nH]2)nc(Nc2cccc(CN3CCN(C(=O)c4nccnc4OC)CC3)c2)n1 [TA1078, methyl (S)-3-(4-cyanophenyl)-2-((4-(((5-fluoro-1H-benzo[d]imidazol-2-yl)methyl)amino)-6-((3-((4-(3-methoxypyrazine-2-carbonyl)piperazin-1-yl)methyl)phenyl)amino)-1,3,5-triazin-2-yl)amino)propanoate]"
5,3.60 to 4.70,"COC(=O)[C@H](Cc1ccc(C#N)cc1)Nc1nc(Nc2cccc(CN3CCNCC3)c2)nc(N(C)CCc2nc3ccc(OC)cc3[nH]2)n1 [TA1052, methyl (S)-3-(4-cyanophenyl)-2-((4-((2-(6-methoxy-1H-benzo[d]imidazol-2-yl)ethyl)(methyl)amino)-6-((3-(piperazin-d-ylmethyl)phenyl)amino)-1,3,5-triazin-2-yl)amino)propanoate]"
6,< 3.60,"COCCNc1nc(Nc2cccc(CN3CCNCC3)c2)nc(N[C@@H](Cc2ccc(C#N)cc2)C(=O)OC)n1 [TA1031, methyl (S)-3-(4-cyanophenyl)-2-((4-((2-methoxyethyl)amino)-6-((3-(piperazin-1-ylmethyl)phenyl)amino)-1,3,5-triazin-2-yl)amino)propanoate]"
7,< 3.60,"COC(=O)[C@H](Cc1ccc(C#N)cc1)Nc1nc(NCc2nccn2C)nc(Nc2cccc(CN3CCN(C(=O)c4nccnc4O)CC3)c2)n1 [TA1034, methyl (S)-3-(4-cyanophenyl)-2-((4-((3-((4-(3-hydroxypyrazine-2-carbonyl)piperazin-1-yl)methyl)phenyl)amino)-6-(((1-methyl-1H-imidazol-2-yl)methyl)amino)-1,3,5-triazin-2-yl)amino)propanoate]"
8,< 3.60,"CNC(=O)[C@H](Cc1ccc(C#N)cc1)Nc1nc(NCc2nc3cc(F)ccc3[nH]2)nc(Nc2cccc(CN3CCNCC3)c2)n1 [TA1022, (S)-3-(4-cyanophenyl)-2-((4-(((5-fluoro-1H-benzo[d]imidazol-2-yl)methyl)amino)-6-((3-(piperazin-1-ylmethyl)phenyl)amino)-1,3,5-triazin-2-yl)amino)-N-methylpropanamide]"
9,< 3.60,"COCCOCCNC(=O)[C@H](Cc1ccc(C#N)cc1)Nc1nc(NCc2nc3cc(F)ccc3[nH]2)nc(Nc2cccc(CN3CCNCC3)c2)n1 [TA1023, (S)-3-(4-cyanophenyl)-2-((4-(((5-fluoro-1H-benzo[d]imidazol-2-yl)methyl)amino)-6-((3-(piperazin-1-ylmethyl)phenyl)amino)-1,3,5-triazin-2-yl)amino)-N-(2-(2-methoxyethoxy)ethyl)propanamide]"
10,< 3.60,"COC(=O)[C@H](Cc1ccc(C#N)cc1)Nc1nc(NCc2nc3cc(Cl)ccc3[nH]2)nc(Nc2cccc(CN3CCN(C(=O)c4cccc(-n5cccn5)c4)CC3)c2)n1 [TA1060, methyl (S)-2-((4-((3-((4-(3-(1H-pyrazol-1-yl)benzoyl)piperazin-1-yl)methyl)phenyl)amino)-6-(((5-chloro-1H-benzo[d]imidazol-2-yl)methyl)amino)-1,3,5-triazin-2-yl)amino)-3-(4-cyanophenyl)propanoate]"
11,< 3.60,"COC(=O)[C@H](Cc1ccc(C#N)cc1)Nc1nc(NCc2nnn[nH]2)nc(Nc2cccc(CN3CCNCC3)c2)n1 [TA1068, methyl (S)-2-((4-(((1H-tetrazol-5-yl)methyl)amino)-6-((3-(piperazin-1-ylmethyl)phenyl)amino)-1,3,5-triazin-2-yl)amino)-3-(4-cyanophenyl)propanoate]"
12,< 3.60,"CN(C)C(=O)[C@H](Cc1ccc(C#N)cc1)Nc1nc(NCc2nc3cc(F)ccc3[nH]2)nc(Nc2cccc(CN3CCN(C(=O)OC(C)(C)C)CC3)c2)n1 [TA1036, tert-butyl (S)-4-(3-((4-((3-(4-cyanophenyl)-1-(dimethylamino)-1-oxopropan-2-yl)amino)-6-(((5-fluoro-1H-benzo[d]imidazol-2-yl)methyl)amino)-1,3,5-triazin-2-yl)amino)benzyl)piperazine-1-carboxylate]"
13,< 3.60,"COC(=O)[C@H](Cc1ccc(C#N)cc1)Nc1nc(Nc2cccc(CN3CCN(C(=O)c4csnn4)CC3)c2)nc(N(C)CCc2nc3ccc(OC)cc3[nH]2)n1 [TA1055, methyl (S)-2-((4-((3-((4-(1,2,3-thiadiazole-4-carbonyl)piperazin-1-yl)methyl)phenyl)amino)-6-((2-(6-methoxy-1H-benzo[d]imidazol-2-yl)ethyl)(methyl)amino)-1,3,5-triazin-2-yl)amino)-3-(4-cyanophenyl)propanoate]"
14,< 3.60,"CN(C)C(=O)[C@H](Cc1ccc(C#N)cc1)Nc1nc(Cl)nc(Nc2cccc(CN3CCNCC3)c2)n1 [TA1009, (S)-2-((4-chloro-6-((3-(piperazin-1-ylmethyl)phenyl)amino)-1,3,5-triazin-2-yl)amino)-3-(4-cyanophenyl)-N,N-dimethylpropanamide]"
15,< 3.60,"COC(=O)[C@H](Cc1ccc(C#N)cc1)Nc1nc(NCc2nnn[nH]2)nc(Nc2cccc(CN3CCN(C(=O)c4nccnc4O)CC3)c2)n1 [TA1069, methyl (S)-2-((4-(((1H-tetrazol-5-yl)methyl)amino)-6-((3-((4-(3-hydroxypyrazine-2-carbonyl)piperazin-1-yl)methyl)phenyl)amino)-1,3,5-triazin-2-yl)amino)-3-(4-cyanophenyl)propanoate]"
16,< 3.60,"COCCOCCNC(=O)[C@H](Cc1ccc(C#N)cc1)Nc1nc(NCc2nc3cc(F)ccc3[nH]2)nc(Nc2cccc(CN3CCN(C(=O)c4nccnc4OC)CC3)c2)n1 [TA1029, (S)-3-(4-cyanophenyl)-2-((4-(((5-fluoro-1H-benzo[d]imidazol-2-yl)methyl)amino)-6-((3-((4-(3-methoxypyrazine-2-carbonyl)piperazin-1-yl)methyl)phenyl)amino)-1,3,5-triazin-2-yl)amino)-N-(2-(2-methoxyethoxy)ethyl)propanamide]"
